# Results reported in patent US12064402B2, “Binge behavior regulators” (Clearmind Medicine Inc., priority 2014, dated 2024).
# Experiments:
# [1] = over six months, when used with counseling; cited from earlier work
# [2] = amount of alcoholic beverage drunk in a binge session after the drinking regulator; format: in vivo; settings: 70 mg of drinking regulator; for amount of beer drunk in a binge session: reduced from 1.5 liter; for amount of wine drunk in a binge session: reduced from 1000 ml
# Method: In exemplary embodiments, administration of the amount of 70 mg of drinking regulator selected form Compound 1 or Compound 2 described herein reduced the amount of beer drunk in a binge session from 1.5 liter to 0.5 liter, or the amount of wine drunk in a binge session from 1000 ml to 250 ml.
smiles,measurement,setting,value
C=C1CC[C@@]2(O)[C@H]3Cc4ccc(O)c5c4[C@@]2(CCN3CC2CC2)[C@H]1O5 [Nalmefene],cut drinking,[1],61%
"COc1cc2c(cc1OC)CC(N)C2 [Compound 2, 5,6-dimethoxy-2-aminoindan]",amount of beer drunk in a binge session,[2],0.5 L
same,amount of wine drunk in a binge session,[2],250 mL
"COc1ccc2c(c1)CC(N)C2 (centres unmarked) [Compound 1, 5-methoxy-2-aminoindan]",amount of beer drunk in a binge session,[2],0.5 L
same,amount of wine drunk in a binge session,[2],250 mL
